Values after ≈ are worked out from the molar mass of the structure shown. Read-outs that look alike come from different tables or passages of the source.
Assays:
S. aureus ATCC 33591 = assay: microbe, parasite or virus in culture; assay type: cell-based, Staphylococcus aureus; conditions: for MIC: Staphylococcus aureus
Procedure, shortened: (§1)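 MW2 passaged on cation-adjusted Mueller-Hinton II agar with ¼ MIC of TR-700, TR-705, LZD, TIA, CLI, TET, VAN or TMP/SMX plus a linear DAP gradient; ATCC 33591 with ¼ MIC TR-700, TMP/SMX or VAN; DAP-only controls.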

S. aureus MW2 (NRS123) = assay: microbe, parasite or virus in culture; assay type: cell-based, Staphylococcus aureus; conditions: for MIC: Staphylococcus aureus
Procedure, shortened: as §1

SMILES: Cn1nnc(-c2ccc(-c3ccc(N4C[C@H](CO)OC4=O)cc3F)cn2)n1 [TR-700, Tedizolid]
- DAP MIC lower than DAP-only control (S. aureus ATCC 33591; ATCC 33591, co-selecting agent at ¼ MIC): 4 fold
- MIC (S. aureus ATCC 33591; ATCC33591, passage 0, ATCC 33591 WT): 0.5 µg/mL (≈ 1.35 µM)
- MIC (S. aureus ATCC 33591; ATCC33591, passage 5, selection group DAP): 0.125 µg/mL (≈ 0.338 µM)
- MIC (S. aureus ATCC 33591; ATCC33591, passage 5, selection group DAP + TMP/SMX): 0.5 µg/mL
- MIC (S. aureus ATCC 33591; ATCC33591, passage 5, selection group DAP + TR-700): 0.5 µg/mL
- MIC (S. aureus ATCC 33591; ATCC33591, passage 5, selection group DAP + VAN): 0.5 µg/mL
- MIC (S. aureus ATCC 33591; ATCC33591, passage 10, selection group DAP): 0.125 µg/mL (≈ 0.338 µM)
- MIC (S. aureus ATCC 33591; ATCC33591, passage 10, selection group DAP + TMP/SMX): 0.25 µg/mL
- MIC (S. aureus ATCC 33591; ATCC33591, passage 10, selection group DAP + TR-700): 0.5 µg/mL
- MIC (S. aureus ATCC 33591; ATCC33591, passage 10, selection group DAP + VAN): 0.5 µg/mL
- MIC (S. aureus ATCC 33591; ATCC33591, passage 15, selection group DAP): 0.125 µg/mL (≈ 0.338 µM)
- MIC (S. aureus ATCC 33591; ATCC33591, passage 15, selection group DAP + TMP/SMX): 0.25 µg/mL
- MIC (S. aureus ATCC 33591; ATCC33591, passage 15, selection group DAP + TR-700): 0.5 µg/mL
- MIC (S. aureus ATCC 33591; ATCC33591, passage 15, selection group DAP + VAN): 0.25 µg/mL
- MIC (S. aureus ATCC 33591; ATCC33591, passage 20, selection group DAP): 0.125 µg/mL (≈ 0.338 µM)
- MIC (S. aureus ATCC 33591; ATCC33591, passage 20, selection group DAP + TMP/SMX): 0.25 µg/mL
- MIC (S. aureus ATCC 33591; ATCC33591, passage 20, selection group DAP + TR-700): 0.5 µg/mL
- MIC (S. aureus ATCC 33591; ATCC33591, passage 20, selection group DAP + VAN): 0.5 µg/mL
- MIC (S. aureus ATCC 33591; ATCC33591, passage 25, selection group DAP): 0.125 µg/mL (≈ 0.338 µM)
- MIC (S. aureus ATCC 33591; ATCC33591, passage 25, selection group DAP + TMP/SMX): 0.25 µg/mL
- MIC (S. aureus ATCC 33591; ATCC33591, passage 25, selection group DAP + TR-700): 0.25 µg/mL
- MIC (S. aureus ATCC 33591; ATCC33591, passage 25, selection group DAP + VAN): 0.25 µg/mL
- MIC (S. aureus ATCC 33591; ATCC33591, passage 30, selection group DAP): 0.125 µg/mL (≈ 0.338 µM)
- MIC (S. aureus ATCC 33591; ATCC33591, passage 30, selection group DAP + TMP/SMX): 0.25 µg/mL
- MIC (S. aureus ATCC 33591; ATCC33591, passage 30, selection group DAP + TR-700): 0.5 µg/mL
- MIC (S. aureus ATCC 33591; ATCC33591, passage 30, selection group DAP + VAN): 0.5 µg/mL
- MIC (S. aureus ATCC 33591; ATCC33591, read-out: DAP MIC of the co-selection passage group, ATCC 33591, through P15, co-selecting agent at ¼ MIC): ≤ 1 µg/mL
- DAP MIC lower than DAP-only control (S. aureus MW2 (NRS123); MW2, after 30 passages, co-selecting agent at ¼ MIC, total population): 16 fold
- MIC (S. aureus MW2 (NRS123); NRS123, passage 0, NRS123 WT): 0.5 µg/mL (≈ 1.35 µM)
- MIC (S. aureus MW2 (NRS123); NRS123, passage 5, selection group DAP): 0.5 µg/mL (≈ 1.35 µM)
- MIC (S. aureus MW2 (NRS123); NRS123, passage 5, selection group DAP + CLI): 0.5 µg/mL
- MIC (S. aureus MW2 (NRS123); NRS123, passage 5, selection group DAP + LZD): 0.5 µg/mL
- MIC (S. aureus MW2 (NRS123); NRS123, passage 5, selection group DAP + TET): 0.5 µg/mL
- MIC (S. aureus MW2 (NRS123); NRS123, passage 5, selection group DAP + TIA): 0.5 µg/mL
- MIC (S. aureus MW2 (NRS123); NRS123, passage 5, selection group DAP + TMP/SMX): 0.25 µg/mL
- MIC (S. aureus MW2 (NRS123); NRS123, passage 5, selection group DAP + TR-700): 0.5 µg/mL
- MIC (S. aureus MW2 (NRS123); NRS123, passage 5, selection group DAP + TR-705): 0.5 µg/mL
- MIC (S. aureus MW2 (NRS123); NRS123, passage 5, selection group DAP + VAN): 0.25 µg/mL
- MIC (S. aureus MW2 (NRS123); NRS123, passage 10, selection group DAP): 0.5 µg/mL (≈ 1.35 µM)
- MIC (S. aureus MW2 (NRS123); NRS123, passage 10, selection group DAP + CLI): 0.5 µg/mL
- MIC (S. aureus MW2 (NRS123); NRS123, passage 10, selection group DAP + LZD): 0.5 µg/mL
- MIC (S. aureus MW2 (NRS123); NRS123, passage 10, selection group DAP + TET): 0.5 µg/mL
- MIC (S. aureus MW2 (NRS123); NRS123, passage 10, selection group DAP + TIA): 0.5 µg/mL
- MIC (S. aureus MW2 (NRS123); NRS123, passage 10, selection group DAP + TMP/SMX): 0.5 µg/mL
- MIC (S. aureus MW2 (NRS123); NRS123, passage 10, selection group DAP + TR-700): 0.5 µg/mL
- MIC (S. aureus MW2 (NRS123); NRS123, passage 10, selection group DAP + TR-705): 0.5 µg/mL
- MIC (S. aureus MW2 (NRS123); NRS123, passage 10, selection group DAP + VAN): 0.25 µg/mL
- MIC (S. aureus MW2 (NRS123); NRS123, passage 15, selection group DAP): 0.25 µg/mL (≈ 0.675 µM)
- MIC (S. aureus MW2 (NRS123); NRS123, passage 15, selection group DAP + CLI): 0.25 µg/mL
- MIC (S. aureus MW2 (NRS123); NRS123, passage 15, selection group DAP + LZD): 0.5 µg/mL
- MIC (S. aureus MW2 (NRS123); NRS123, passage 15, selection group DAP + TET): 0.25 µg/mL
- MIC (S. aureus MW2 (NRS123); NRS123, passage 15, selection group DAP + TIA): 0.5 µg/mL
- MIC (S. aureus MW2 (NRS123); NRS123, passage 15, selection group DAP + TMP/SMX): 0.5 µg/mL
- MIC (S. aureus MW2 (NRS123); NRS123, passage 15, selection group DAP + TR-700): 0.5 µg/mL
- MIC (S. aureus MW2 (NRS123); NRS123, passage 15, selection group DAP + TR-705): 0.5 µg/mL
- MIC (S. aureus MW2 (NRS123); NRS123, passage 15, selection group DAP + VAN): 0.5 µg/mL
- MIC (S. aureus MW2 (NRS123); NRS123, passage 20, selection group DAP): 0.5 µg/mL (≈ 1.35 µM)
- MIC (S. aureus MW2 (NRS123); NRS123, passage 20, selection group DAP + CLI): 0.25 µg/mL
- MIC (S. aureus MW2 (NRS123); NRS123, passage 20, selection group DAP + LZD): 0.5 µg/mL
- MIC (S. aureus MW2 (NRS123); NRS123, passage 20, selection group DAP + TET): 0.25 µg/mL
- MIC (S. aureus MW2 (NRS123); NRS123, passage 20, selection group DAP + TIA): 0.5 µg/mL
- MIC (S. aureus MW2 (NRS123); NRS123, passage 20, selection group DAP + TMP/SMX): 0.5 µg/mL
- MIC (S. aureus MW2 (NRS123); NRS123, passage 20, selection group DAP + TR-700): 0.5 µg/mL
- MIC (S. aureus MW2 (NRS123); NRS123, passage 20, selection group DAP + TR-705): 0.5 µg/mL
- MIC (S. aureus MW2 (NRS123); NRS123, passage 20, selection group DAP + VAN): 0.5 µg/mL
- MIC (S. aureus MW2 (NRS123); NRS123, passage 25, selection group DAP): 0.25 µg/mL (≈ 0.675 µM)
- MIC (S. aureus MW2 (NRS123); NRS123, passage 25, selection group DAP + CLI): 0.25 µg/mL
- MIC (S. aureus MW2 (NRS123); NRS123, passage 25, selection group DAP + LZD): 0.25 µg/mL
- MIC (S. aureus MW2 (NRS123); NRS123, passage 25, selection group DAP + TET): 0.25 µg/mL
- MIC (S. aureus MW2 (NRS123); NRS123, passage 25, selection group DAP + TIA): 0.5 µg/mL
- MIC (S. aureus MW2 (NRS123); NRS123, passage 25, selection group DAP + TMP/SMX): 0.25 µg/mL
- MIC (S. aureus MW2 (NRS123); NRS123, passage 25, selection group DAP + TR-700): 0.5 µg/mL
- MIC (S. aureus MW2 (NRS123); NRS123, passage 25, selection group DAP + TR-705): 0.5 µg/mL
- MIC (S. aureus MW2 (NRS123); NRS123, passage 25, selection group DAP + VAN): 0.25 µg/mL
- MIC (S. aureus MW2 (NRS123); NRS123, passage 30, selection group DAP): 0.25 µg/mL (≈ 0.675 µM)
- MIC (S. aureus MW2 (NRS123); NRS123, passage 30, selection group DAP + CLI): 0.25 µg/mL
- MIC (S. aureus MW2 (NRS123); NRS123, passage 30, selection group DAP + LZD): 0.5 µg/mL
- MIC (S. aureus MW2 (NRS123); NRS123, passage 30, selection group DAP + TET): 0.25 µg/mL
- MIC (S. aureus MW2 (NRS123); NRS123, passage 30, selection group DAP + TIA): 0.5 µg/mL
- MIC (S. aureus MW2 (NRS123); NRS123, passage 30, selection group DAP + TMP/SMX): 0.5 µg/mL
- MIC (S. aureus MW2 (NRS123); NRS123, passage 30, selection group DAP + TR-700): 0.5 µg/mL
- MIC (S. aureus MW2 (NRS123); NRS123, passage 30, selection group DAP + TR-705): 0.5 µg/mL
- MIC (S. aureus MW2 (NRS123); NRS123, passage 30, selection group DAP + VAN): 0.25 µg/mL
- MIC (S. aureus MW2 (NRS123); NRS123, read-out: DAP MIC by the end of the experiment (selection of DAP^ns strains), MW2, passaged with DAP alone or with co-selecting agent at ¼ MIC, CLSI breakpoint): > 1 µg/mL
- susceptibility to the co-selecting agent in its co-selection group (S. aureus MW2 (NRS123); over the course of 30 passages): did not demonstrate reduced susceptibility to TR-700

Source: patent publication US20130274174A1, “THERAPEUTIC COMBINATION OF DAPTOMYCIN AND PROTEIN SYNTHESIS INHIBITOR ANTIBIOTIC, AND METHODS OF USE” (priority 2011, published 2013)
